Test results as given in ChEMBL document CHEMBL4613266, “Discovery and Structure Relationships of Salicylanilide Derivatives as Potent, Non-acidic P2X1 Receptor Antagonists” (J Med Chem, 2020).
Calls of active or inactive are those of the source. The rule behind the calls is not given here.

Legend:
Type in all cases: cell-based
[1] = target: T1, P2X purinoceptor 1 (Homo sapiens) (UniProt P51575); assay: Antagonist activity at non-desensitizing human P2X1 receptor ( P2X2/P2X1 chimera) expressed in human 1321N1 cells assessed as inhibition of ATP-induced calcium influx at 10 uM pre-incubated for 30 mins before ATP stimulation by FLIPR assay relative to control
T1 sequence (whole entry): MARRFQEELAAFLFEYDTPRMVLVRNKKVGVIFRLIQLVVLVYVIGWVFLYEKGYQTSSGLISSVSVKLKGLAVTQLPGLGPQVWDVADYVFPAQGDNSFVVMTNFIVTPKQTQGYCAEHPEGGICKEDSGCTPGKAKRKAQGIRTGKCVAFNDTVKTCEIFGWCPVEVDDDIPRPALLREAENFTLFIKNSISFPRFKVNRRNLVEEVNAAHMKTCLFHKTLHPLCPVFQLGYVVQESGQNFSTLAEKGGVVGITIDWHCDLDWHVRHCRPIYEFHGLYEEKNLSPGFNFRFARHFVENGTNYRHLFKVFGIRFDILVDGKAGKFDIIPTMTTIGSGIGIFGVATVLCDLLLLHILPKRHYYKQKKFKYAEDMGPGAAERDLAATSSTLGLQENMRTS

[2] = target: T1, P2X purinoceptor 1 (Homo sapiens); assay: Antagonist activity at non-desensitizing human P2X1 receptor ( P2X2/P2X1 chimera) expressed in human 1321N1 cells assessed as inhibition of ATP-induced calcium influx at 1 uM pre-incubated for 30 mins before ATP stimulation by FLIPR assay relative to control
[3] = target: T1, P2X purinoceptor 1 (Homo sapiens); assay: (§1) Antagonist activity at non-desensitizing human P2X1 receptor ( P2X2/P2X1 chimera) expressed in human 1321N1 cells assessed as inhibition of ATP-induced calcium influx pre-incubated for 30 mins before ATP stimulation by FLIPR assay relative to control
[4] = target: P2X purinoceptor 1 (Homo sapiens, UniProt P51575); assay: as §1
[5] = target: T1, P2X purinoceptor 1 (Homo sapiens); assay: as §1, with “Negative allosteric modulator” for “Antagonist”, “of maximal response for” for “of”, “influx at 100 to 500 nM” for “influx”
[6] = target: T2, P2X purinoceptor 2 (Homo sapiens, UniProt Q9UBL9); assay: Antagonist activity at human P2X2 receptor expressed in human 1321N1 cells assessed as inhibition of ATP-induced cytosolic calcium influx preincubated for 30 mins followed by ATP addition by Fluo-4 AM dye-based fluorescence assay
T2 sequence (Q9UBL9 whole entry): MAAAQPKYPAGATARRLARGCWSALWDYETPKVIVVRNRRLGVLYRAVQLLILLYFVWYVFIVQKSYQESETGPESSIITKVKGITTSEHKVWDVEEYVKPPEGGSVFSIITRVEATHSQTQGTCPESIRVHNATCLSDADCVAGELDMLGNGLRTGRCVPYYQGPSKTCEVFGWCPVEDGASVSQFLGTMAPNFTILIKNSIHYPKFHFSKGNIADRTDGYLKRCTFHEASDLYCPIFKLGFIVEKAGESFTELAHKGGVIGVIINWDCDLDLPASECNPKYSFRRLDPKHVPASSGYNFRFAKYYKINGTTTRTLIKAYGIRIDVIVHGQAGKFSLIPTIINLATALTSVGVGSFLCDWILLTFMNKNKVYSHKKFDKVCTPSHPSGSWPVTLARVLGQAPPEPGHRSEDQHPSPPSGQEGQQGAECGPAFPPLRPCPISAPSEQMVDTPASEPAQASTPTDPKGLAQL

[7] = target: T3, P2X purinoceptor 2 (Homo sapiens) (UniProt Q9UBL9); assay: Antagonist activity at human P2X2 receptor expressed in human 1321N1 cells assessed as inhibition of ATP-induced cytosolic calcium influx at 10 uM preincubated for 30 mins followed by ATP addition by Fluo-4 AM dye-based fluorescence assay relative to control
T3 sequence (whole entry): T2 sequence (Q9UBL9 whole entry)

[8] = target: T4, P2X purinoceptor 3 (Homo sapiens, UniProt P56373); assay: Antagonist activity at human P2X3 receptor expressed in human 1321N1 cells assessed as inhibition of ATP-induced cytosolic calcium influx preincubated for 30 mins followed by ATP addition by Fluo-4 AM dye-based fluorescence assay
T4 sequence (P56373 whole entry): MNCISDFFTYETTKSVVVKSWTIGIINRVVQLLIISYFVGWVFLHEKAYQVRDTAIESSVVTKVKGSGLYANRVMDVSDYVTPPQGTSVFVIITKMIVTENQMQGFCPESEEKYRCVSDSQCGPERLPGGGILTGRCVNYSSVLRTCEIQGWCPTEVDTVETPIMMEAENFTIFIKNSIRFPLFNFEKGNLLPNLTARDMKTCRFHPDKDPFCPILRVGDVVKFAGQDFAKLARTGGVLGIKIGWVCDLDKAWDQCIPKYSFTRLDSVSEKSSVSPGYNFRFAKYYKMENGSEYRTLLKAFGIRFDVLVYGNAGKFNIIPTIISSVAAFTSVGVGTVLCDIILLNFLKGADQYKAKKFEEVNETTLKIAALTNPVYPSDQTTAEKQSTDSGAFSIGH

[9] = target: T5, P2X purinoceptor 3 (Homo sapiens) (UniProt P56373); assay: Antagonist activity at human P2X3 receptor expressed in human 1321N1 cells assessed as inhibition of ATP-induced cytosolic calcium influx at 10 uM preincubated for 30 mins followed by ATP addition by Fluo-4 AM dye-based fluorescence assay relative to control
T5 sequence (whole entry): T4 sequence (P56373 whole entry)

[10] = target: T6, P2X purinoceptor 4 (Homo sapiens, UniProt Q99571); assay: Antagonist activity at human P2X4 receptor expressed in human 1321N1 cells assessed as inhibition of ATP-induced cytosolic calcium influx preincubated for 30 mins followed by ATP addition by Fluo-4 AM dye-based fluorescence assay
T6 sequence (Q99571 whole entry): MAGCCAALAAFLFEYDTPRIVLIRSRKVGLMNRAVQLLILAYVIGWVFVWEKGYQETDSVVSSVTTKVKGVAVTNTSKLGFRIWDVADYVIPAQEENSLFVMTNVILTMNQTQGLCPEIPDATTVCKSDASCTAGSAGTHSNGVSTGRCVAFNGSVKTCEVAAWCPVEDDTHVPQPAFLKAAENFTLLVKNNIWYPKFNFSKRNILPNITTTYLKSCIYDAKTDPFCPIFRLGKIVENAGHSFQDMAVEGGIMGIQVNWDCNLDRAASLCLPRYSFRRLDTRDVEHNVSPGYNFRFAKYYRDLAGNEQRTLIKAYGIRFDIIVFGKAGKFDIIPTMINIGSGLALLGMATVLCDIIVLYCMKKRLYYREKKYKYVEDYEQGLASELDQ

[11] = target: T7, P2X purinoceptor 7 (Homo sapiens, UniProt Q99572); assay: Antagonist activity at human P2X7 receptor expressed in human 1321N1 cells assessed as inhibition of ATP-induced cytosolic calcium influx preincubated for 30 mins followed by ATP addition by Fluo-4 AM dye-based fluorescence assay
T7 sequence (Q99572 whole entry): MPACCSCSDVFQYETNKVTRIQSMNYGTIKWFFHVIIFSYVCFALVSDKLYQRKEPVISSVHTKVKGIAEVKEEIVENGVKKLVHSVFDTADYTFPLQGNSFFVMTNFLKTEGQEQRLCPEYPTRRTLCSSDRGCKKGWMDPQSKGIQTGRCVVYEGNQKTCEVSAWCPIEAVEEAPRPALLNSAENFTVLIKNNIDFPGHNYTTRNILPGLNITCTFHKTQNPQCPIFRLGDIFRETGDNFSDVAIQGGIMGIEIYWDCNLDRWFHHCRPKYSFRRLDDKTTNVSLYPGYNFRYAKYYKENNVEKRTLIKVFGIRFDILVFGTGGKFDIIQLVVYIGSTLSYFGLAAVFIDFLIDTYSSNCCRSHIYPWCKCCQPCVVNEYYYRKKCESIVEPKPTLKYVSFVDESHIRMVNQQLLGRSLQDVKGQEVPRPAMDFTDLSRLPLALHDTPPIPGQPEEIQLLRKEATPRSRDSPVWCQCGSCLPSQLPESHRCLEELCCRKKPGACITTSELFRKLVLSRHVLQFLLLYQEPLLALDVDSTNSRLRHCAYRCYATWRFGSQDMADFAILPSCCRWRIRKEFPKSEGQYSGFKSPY

[12] = target: T8, P2X purinoceptor 4 (Homo sapiens) (UniProt Q99571); assay: Antagonist activity at human P2X4 receptor expressed in human 1321N1 cells assessed as inhibition of ATP-induced cytosolic calcium influx at 10 uM preincubated for 30 mins followed by ATP addition by Fluo-4 AM dye-based fluorescence assay relative to control
T8 sequence (whole entry): T6 sequence (Q99571 whole entry)

[13] = target: T1, P2X purinoceptor 1 (Homo sapiens); assay: Antagonist activity P2X1 receptor in Apyrase pre-treated human platelets assessed as inhibition of collagen-induced platelet aggregation pre-incubated for 30 mins before collagen stimulation by aggregometry relative to control
[14] = target: T1, P2X purinoceptor 1 (Homo sapiens); assay: Antagonist activity P2X1 receptor in Apyrase pre-treated human platelets assessed as inhibition of TRAP6-induced platelet aggregation pre-incubated for 30 mins before TRAP6 stimulation by aggregometry relative to control
[15] = target: T1, P2X purinoceptor 1 (Homo sapiens); assay: Antagonist activity P2X1 receptor in human platelets assessed as inhibition of ADP-induced platelet aggregation pre-incubated for 30 mins before ADP stimulation by aggregometry relative to control

Structure (SMILES)	inhibition [1] [%]	inhibition [2] [%]	inhibition [3]	IC50 [4] [nM]	inhibition [5]	IC50 [6] [nM]	inhibition [7] [%]	IC50 [8] [nM]	inhibition [9] [%]	IC50 [10] [nM]	IC50 [11] [nM]	inhibition [12] [%]	inhibition [13] [%]	inhibition [14] [%]	inhibition [15] [%]
O=C(Nc1cc(C(F)(F)F)cc(C(F)(F)F)c1)c1cc(Cl)ccc1O [IMD-0354]	> 75	> 40	Dose-dependent effect	19.2	Active	> 10000	-7	> 10000	11	156	175				
O=C(Nc1cc(C(F)(F)F)cc(C(F)(F)F)c1)c1cccc(F)c1O	80			70.6	Active	> 10000		> 10000	38	≥ 10000	857	49			
O=C(Nc1cc(F)cc(F)c1)c1cc(Cl)ccc1O	62			50.5		> 10000	4	> 10000	2	155	160		47	5	14
